Data taken from patent publication US20200282052A1, “A COMBINATION THERAPY WITH APATINIB FOR THE TREATMENT OF CANCER” (Elevar Therapeutics, Inc., priority 2017, published 2020).
Structures can show the parent of a compound that is named as a salt.

Key:
[1] = in vivo; cited from earlier work
c-SRC = c-SRC (Homo sapiens, UniProt P12931); conditions: cited from earlier work
[2] = tested on: tumor bearing animal models; conditions: cited from earlier work
[3] = healthy volunteers, cited from earlier work
[4] = tested on: advanced or metastatic gastric cancer; conditions: cited from earlier work
[5] = tested on: mouse LL/2 lung carcinoma; experiment: LL/2 lung carcinoma syngeneic mouse model; format: in vivo; conditions: day 20; apatinib mesylate 300 mg/kg p.o. q.d., anti-muPD-1 antibody 10 mg/kg i.p. b.i.w.; C57BL/6 mice
Description: 40 female C57BL/6 mice purchased from Jackson Laboratories were enrolled on the study. Animals were housed for stabilization period. Animals were housed in individual HEPA ventilated cages (Innocage® IVC, Innovive USA). Fluorescent lighting was provided on a 12-hour cycle. Temperature and humidity was monitored and recorded daily and maintained to the maximum extent possible between 68-74° F. (20-23° C.) and 30-70% humidity, respectively. 2920×.10 18% soy irradiated rodent feed (Harlan) and autoclaved acidified water (pH 2.5-3) was provided ad libitum.
For inoculation, LL/2 cell viability was at 98%. Cryo vials containing LL/2 cells were thawed and prepared for injection into mice. On study day −3 cells were washed in PBS, counted, and re-suspended in cold PBS at concentrations of 250,000 viable cells/100 μL. Cell suspensions were mixed with PBS and kept on ice during transport to the vivarium. Cells for injections were prepared by withdrawing the PBS-cell mixture into a chilled 1 mL Lure-lok syringe fitted with a 26 7/8 G (0.5 mm×22 mm) needle. […]
Animals were monitored weekly for palpable tumors, or any changes in appearance or behavior. Once tumors were palpable, they were measured 3 times a week using calipers. Tumor volume was calculated using the following equation (longest diameter×shortest diameter 2)/2.
Body weight was measured at least three times a week. […]

VEGFR-2 = VEGFR-2 (Homo sapiens, UniProt P35968); conditions: nonclinical studies; cited from earlier work
Sequence of VEGFR-2 (P35968 20-1356, species assumed): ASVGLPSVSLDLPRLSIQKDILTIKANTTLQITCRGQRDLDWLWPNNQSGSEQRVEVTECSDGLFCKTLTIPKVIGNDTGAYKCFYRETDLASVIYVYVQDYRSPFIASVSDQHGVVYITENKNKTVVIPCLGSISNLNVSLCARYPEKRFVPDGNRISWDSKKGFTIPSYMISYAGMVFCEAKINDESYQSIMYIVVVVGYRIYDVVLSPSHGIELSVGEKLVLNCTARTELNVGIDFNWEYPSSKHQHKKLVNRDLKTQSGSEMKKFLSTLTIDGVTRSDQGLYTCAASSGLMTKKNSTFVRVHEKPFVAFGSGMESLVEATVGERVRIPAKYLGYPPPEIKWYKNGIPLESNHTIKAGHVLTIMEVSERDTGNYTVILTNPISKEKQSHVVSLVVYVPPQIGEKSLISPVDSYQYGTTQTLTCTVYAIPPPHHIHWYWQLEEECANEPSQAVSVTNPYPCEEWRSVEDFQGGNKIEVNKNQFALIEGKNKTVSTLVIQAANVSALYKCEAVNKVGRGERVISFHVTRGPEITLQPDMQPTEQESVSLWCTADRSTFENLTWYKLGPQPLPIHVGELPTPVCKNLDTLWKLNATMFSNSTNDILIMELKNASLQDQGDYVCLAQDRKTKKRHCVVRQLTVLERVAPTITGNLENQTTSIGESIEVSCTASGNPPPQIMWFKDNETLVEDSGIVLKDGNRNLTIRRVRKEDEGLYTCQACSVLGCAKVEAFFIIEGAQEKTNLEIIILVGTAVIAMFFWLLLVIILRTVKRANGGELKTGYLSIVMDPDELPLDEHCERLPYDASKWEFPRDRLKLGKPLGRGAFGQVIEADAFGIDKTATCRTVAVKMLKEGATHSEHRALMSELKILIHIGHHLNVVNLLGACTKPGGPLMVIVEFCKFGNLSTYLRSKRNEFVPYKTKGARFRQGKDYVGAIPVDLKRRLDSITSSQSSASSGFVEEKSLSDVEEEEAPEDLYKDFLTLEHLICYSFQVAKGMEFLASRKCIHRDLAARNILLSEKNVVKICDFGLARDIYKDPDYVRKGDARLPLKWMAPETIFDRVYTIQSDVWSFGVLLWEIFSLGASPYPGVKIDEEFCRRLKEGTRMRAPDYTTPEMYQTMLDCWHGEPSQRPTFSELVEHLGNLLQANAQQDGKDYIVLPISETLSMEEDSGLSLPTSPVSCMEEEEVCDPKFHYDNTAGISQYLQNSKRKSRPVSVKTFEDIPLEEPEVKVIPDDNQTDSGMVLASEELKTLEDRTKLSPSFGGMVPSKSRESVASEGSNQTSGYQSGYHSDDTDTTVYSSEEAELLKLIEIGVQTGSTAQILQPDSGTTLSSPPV

c-Kit = c-Kit (Homo sapiens, UniProt P10721); conditions: cited from earlier work
Sequence of c-Kit (P10721 26-976): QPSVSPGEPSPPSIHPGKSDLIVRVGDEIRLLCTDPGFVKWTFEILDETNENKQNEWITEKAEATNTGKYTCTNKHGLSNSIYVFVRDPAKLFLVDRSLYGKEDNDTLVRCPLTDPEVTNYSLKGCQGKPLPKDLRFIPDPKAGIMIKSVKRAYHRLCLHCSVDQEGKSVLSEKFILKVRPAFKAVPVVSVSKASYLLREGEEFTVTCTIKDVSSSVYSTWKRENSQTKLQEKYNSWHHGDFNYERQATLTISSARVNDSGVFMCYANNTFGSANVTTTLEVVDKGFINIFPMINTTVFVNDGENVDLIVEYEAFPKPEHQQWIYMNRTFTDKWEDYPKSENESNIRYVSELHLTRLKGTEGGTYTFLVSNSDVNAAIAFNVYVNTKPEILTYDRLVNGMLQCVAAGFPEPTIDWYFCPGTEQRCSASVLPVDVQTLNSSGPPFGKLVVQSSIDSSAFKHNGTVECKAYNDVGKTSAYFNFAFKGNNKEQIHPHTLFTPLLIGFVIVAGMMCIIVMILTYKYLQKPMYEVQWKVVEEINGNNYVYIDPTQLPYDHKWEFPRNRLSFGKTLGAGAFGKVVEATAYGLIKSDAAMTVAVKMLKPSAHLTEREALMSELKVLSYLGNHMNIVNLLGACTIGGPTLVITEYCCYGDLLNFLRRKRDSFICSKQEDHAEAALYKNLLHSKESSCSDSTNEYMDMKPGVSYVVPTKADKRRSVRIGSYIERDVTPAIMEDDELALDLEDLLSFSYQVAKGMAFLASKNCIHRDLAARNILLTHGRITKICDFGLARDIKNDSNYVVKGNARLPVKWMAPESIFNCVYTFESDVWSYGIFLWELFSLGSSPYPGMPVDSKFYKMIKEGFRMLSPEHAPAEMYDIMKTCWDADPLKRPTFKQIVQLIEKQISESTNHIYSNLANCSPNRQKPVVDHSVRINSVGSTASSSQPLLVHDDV

[6] = single dose, cited from earlier work

Sequence of c-SRC (P12931 whole entry, species assumed): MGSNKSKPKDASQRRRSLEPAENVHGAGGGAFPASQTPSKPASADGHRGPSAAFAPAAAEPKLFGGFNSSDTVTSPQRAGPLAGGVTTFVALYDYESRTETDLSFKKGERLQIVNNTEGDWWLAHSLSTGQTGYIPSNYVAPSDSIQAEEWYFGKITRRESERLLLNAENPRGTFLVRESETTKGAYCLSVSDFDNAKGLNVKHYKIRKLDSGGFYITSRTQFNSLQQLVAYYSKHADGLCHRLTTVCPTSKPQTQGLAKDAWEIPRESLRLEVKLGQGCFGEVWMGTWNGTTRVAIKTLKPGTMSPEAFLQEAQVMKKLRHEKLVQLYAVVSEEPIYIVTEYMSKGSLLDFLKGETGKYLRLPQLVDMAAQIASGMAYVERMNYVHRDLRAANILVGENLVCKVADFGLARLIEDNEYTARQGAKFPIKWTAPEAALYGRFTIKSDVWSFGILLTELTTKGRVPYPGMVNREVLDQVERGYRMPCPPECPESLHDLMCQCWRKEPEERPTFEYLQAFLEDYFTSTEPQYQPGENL

Row | SMILES | Safety Profile: Central nervous system [1] | Safety Profile: Liver/Bile [1] | Safety Profile: Musculoskeletal/bone [1] | Safety Profile: Renal [1] | Safety Profile: Heart [1] | also measured
1 | Cc1nc(Nc2ncc(C(=O)Nc3c(C)cccc3Cl)s2)cc(N2CCN(CCO)CC2)n1 [Dasatinib] | R | R | R | R | – | –
2 | C#Cc1cccc(Nc2ncnc3cc(OCCOC)c(OCCOC)cc23)c1 [Erlotinib] | R | R | – | – | – | Safety Profile: Blood/lymph system [1]: R
3 | CS(=O)(=O)CCNCc1ccc(-c2ccc3ncnc(Nc4ccc(OCc5cccc(F)c5)c(Cl)c4)c3c2)o1 [Lapatinib] | R | – | – | – | R | –
4 | Cc1cn(-c2cc(NC(=O)c3ccc(C)c(Nc4nccc(-c5cccnc5)n4)c3)cc(C(F)(F)F)c2)cn1 [Nilotinib] | R | – | R | R | – | Safety Profile: GI [1]: R; Safety Profile: Vascular [1]: R
5 | Cc1ccc(Nc2nccc(N(C)c3ccc4c(C)n(C)nc4c3)n2)cc1S(N)(=O)=O [Pazopanib] | – | – | – | – | R | –
6 | N#CC1(c2ccc(NC(=O)c3cccnc3NCc3ccncc3)cc2)CCCC1 [Rivoceranib, N-[4-(1-cyanocyclopentyl)phenyl]-2-{[(pyridin-4-yl)methyl]amino} pyridine-3-carboxamide] | – | – | – | – | – | inhibition of c-SRC tyrosine kinase (c-SRC): mildly inhibits; side effects in animals ([2]; at efficacious doses): minimal side effects; efficacy in various tumor bearing animal models ([2]; nonclinical studies): efficacious; food effects on the bioavailability ([3]; 81 mg rivoceranib dose): minimal; increase in bioavailability with food ([3]; 201 mg dose): 20-30%; median overall survival (OS) compared to placebo ([4]; Phase 3): prolonged; median progression-free survival (PFS) compared to placebo ([4]; Phase 3): prolonged; patients with Grade ¾ adverse reactions ([4]; hypertension, HFS, proteinuria, fatigue, anorexia, and elevated aminotransferase): more than 2%; % Tumor growth inhibition [5]: 37%; binding to VEGFR-2 (VEGFR-2): selectively binds; inhibition of c-Kit tyrosine kinase (c-Kit): mildly inhibits
7 | CNC(=O)c1cc(Oc2ccc(NC(=O)Nc3ccc(Cl)c(C(F)(F)F)c3)cc2)ccn1 [Sorafenib] | R | R | R | R | R | Safety Profile: GI [1]: R; Safety Profile: Lung airways [1]: R
8 | CCN(CC)CCNC(=O)c1c(C)[nH]c(/C=C2\C(=O)Nc3ccc(F)cc32)c1C [Sunitinib] | R | R | – | – | R | –
9 | N#CC1(c2ccc(NC(=O)c3cccnc3NCc3ccncc3)cc2)CCCC1 [rivoceranib mesylate] | – | – | – | – | – | AUC0-∞ in Chinese and Japanese subjects compared to Caucasian subjects ([6]; healthy male): slightly higher; Cmax in Chinese and Japanese subjects compared to Caucasian subjects ([6]; healthy male): slightly higher; t1/2 ([6]; similar amongst Caucasian, Japanese and Chinese groups): 7.5 to 8 h
